Reference: patent publication US20120190788A1, “COLORING PARTICLES” (CANON KABUSHIKI KAISHA, priority 2011, published 2012)
Converted amounts (≈) assume the structure as drawn.

Tests used:
physchem = conditions: 25 °C
Excerpt: Fine and highly monodispersed coloring particles intended according to aspects of the present invention may contain a dye hardly soluble in the water contained in the second liquid described later. […] The solubility parameter of the dye, however, may vary depending on the pH of the water containing it.
The solubility parameter used according to aspects of the present invention can be calculated by measuring the degree of water solubility (mol/L) of the dye by any known experimental method and then substituting the measurement into equation (1). […] For dyes such as metal complex dyes and salt dyes, the metal or salt is first removed, and then the degree of solubility is calculated using ACD/Structure Design Suite and the solubility parameter is calculated from the value.

[1] = in water; cited from earlier work

SMILES | solubility (physchem; pH 6, aqueous buffer) | solubility (physchem; pH 11, aqueous buffer) | Critical micelle concentration [1]
Cc1cc(Br)c(Nc2ccc(O)c3c2C(=O)c2ccccc2C3=O)c(Br)c1 [dye 4] | 0.794 nM (≈ 0.387 ng/mL) | 813 nM (≈ 396 ng/mL) | –
Cc1cccc(Nc2cccc3c2C(=O)c2cccc(Nc4cccc(C)c4)c2C3=O)c1 [dye 2] | ≤ 0.631 nM | – | –
CCCCCCCCCCCCOS(=O)(=O)[O-].[Na+] [sodium dodecyl sulfate] | – | – | 0.0025 g/mL
CC1(C)Nc2cccc3c(/N=N/c4ccc(/N=N/c5ccccc5)c5ccccc45)ccc(c23)N1 [dye 1] | ≤ 0.631 nM | – | –
